Test results: patent US9441012B2, “Fluorinated epoxyketone-based compounds and uses thereof as proteasome inhibitors” (FLUORINOV PHARMA INC., priority 2012, dated 2016)

Experiments:
Experiment in all cases: NCI 60 human tumor cell line screen (SRB)
Assay type in all cases: cell-based
[1] = system: SW-620; settings: SW-620 (Colon Cancer); 48 h
Source text: (§1) Representative compounds of Formula I were screened using the National Cancer Institute (NCI) screening panel, which consists of a panel of 60 different human tumor cell lines, representing leukemia [CCRF-CEM, HL-60 (TB), K-562, MOLT-4, SR], melanoma [LOX IMVI, MALME-3M, M14, SMDA-MB-435, SK-MEL-2, SK-MEL-28, SK-MEL-5, UACC-257 and UACC-62] and cancers of the lung [A549/ATCC, EKVX, HOP-62, HOP-93, NCI-H226, NCI-H23, NCI-H322M, NCI-H460], colon [COLO 205, HCT-116, HCT-15, HT29, KM12, SW-620], brain [SF-268, SF-295, SF-539, SNB-19, SNB-75, U251], ovary [IGROV1, OVCAR-3, OVCAR-4, OVCAR-5, OVCAR-8, NCI/ADR-RES, SK-OV-3], breast [MCF7, MDA-MB-231, BT-549, T-47D, MDA-MB-468], prostate [PC-3, DU-145], and renal[786-0, A498, ACHN, CAKI-1, RXF-393, SN12C, TK-10, UO-31] cancers.
(§2) After 24 h, two plates of each cell line are fixed in situ with TCA, to represent a measurement of the cell population for each cell line at the time of drug addition (Tz). Experimental drugs are solubilised in dimethyl sulfoxide at 400-fold the desired final maximum test concentration and stored frozen prior to use. At the time of drug addition, an aliquot of frozen concentrate is thawed and diluted to twice the desired final maximum test concentration with complete medium containing 50 μg/ml gentamicin. Additional four, 10-fold or ½ log serial dilutions are made to provide a total of five drug concentrations plus control. Aliquots of 100 μl of these different drug dilutions are added to the appropriate microtiter wells already containing 100 μl of medium, resulting in the required final drug concentrations.
(§3) Following drug addition, the plates are incubated for an additional 48 h at 37° C., 5% CO2, 95% air, and 100% relative humidity. For adherent cells, the assay is terminated by the addition of cold TCA (trichloroacetic acid). Cells are fixed in situ by the gentle addition of 50 μl of cold 50% (w/v) TCA (final concentration, 10% TCA) and incubated for 60 minutes at 4° C. The supernatant is discarded, and the plates are washed five times with tap water and air dried. Sulforhodamine B (SRB) solution (100 μl) at 0.4% (w/v) in 1% acetic acid is added to each well, and plates are incubated for 10 minutes at room temperature. After staining, unbound dye is removed by washing five times with 1% acetic acid and the plates are air dried. Bound stain is subsequently solubilised with 10 mM trizma base, and the absorbance is read on an automated plate reader at a wavelength of 515 nm. For suspension cells, the methodology is the same except that the assay is terminated by fixing settled cells at the bottom of the wells by gently adding 50 μl of 80% TCA (final concentration, 16% TCA). Using the seven absorbance measurements [time zero, (Tz), control growth, (C), and test growth in the presence of drug at the five concentration levels (Ti)], the percentage growth is calculated at each of the drug concentration levels. Percentage growth inhibition is calculated as: [(Ti−Tz)/(C−Tz)]×100 for concentrations in which Ti>/=Tz and [(Ti−Tz)/Tz]×100 for concentrations in which Ti<Tz.
(§4) Three dose response parameters are calculated for each experimental agent. Growth inhibition of 50% (GI50) is calculated from [(Ti−Tz)/(C−Tz)]100=50, which is the drug concentration resulting in a 50% reduction in the net protein increase (as measured by SRB staining) in control cells during the drug incubation. The drug concentration resulting in total growth inhibition (TGI) is calculated from Ti=Tz. The LC50 (concentration of drug resulting in a 50% reduction in the measured protein at the end of the drug treatment as compared to that at the beginning) indicating a net loss of cells following treatment is calculated from [(Ti−Tz)/Tz]×100=−50. Values are calculated for each of these three parameters if the level of activity is reached. However, if the effect is not reached or is exceeded, the value for that parameter is expressed as greater or less than the maximum or minimum concentration tested.

[2] = system: NCI/ADR-RES; settings: NCI/ADR-RES (Ovarian Cancer); 48 h
Source text: as §1, §2, §3, §4

[3] = system: HCC-2998; settings: HCC-2998 (Colon Cancer); 48 h
Source text: as §1, §2, §3, §4

[4] = system: COLO 205; settings: COLO 205 (Colon Cancer); 48 h
Source text: as §1, §2, §3, §4

[5] = system: 786-0; settings: 786-0 (Renal Cancer); 48 h
Source text: as §1, §2, §3, §4

[6] = system: A549/ATCC; settings: A549/ATCC (Non-Small Cell Lung Cancer); 48 h
Source text: as §1, §2, §3, §4

[7] = system: NCI-H322M; settings: NCI-H322M (Non-Small Cell Lung Cancer); 48 h
Source text: as §1, §2, §3, §4

[8] = system: RPMI-8226; settings: RPMI-8226 (Leukemia); 48 h
Source text: as §1, §2, §3, §4

[9] = system: MCF7; settings: MCF7 (Breast Cancer); 48 h
Source text: as §1, §2, §3, §4

[10] = system: A498; settings: A498 (Renal Cancer); 48 h
Source text: as §1, §2, §3, §4

[11] = system: MDA-MB-435; settings: MDA-MB-435 (Melanoma); 48 h
Source text: as §1, §2, §3, §4

[12] = system: SR; settings: SR (Leukemia); 48 h

Compound | Log10GI50 [1] | Log10LC50 [1] | Log10TGI50 [1] | Log10GI50 [2] | Log10LC50 [2] | Log10TGI50 [2] | Log10GI50 [3] | Log10LC50 [3] | Log10TGI50 [3] | Log10GI50 [4] | Log10LC50 [4] | Log10TGI50 [4] | Log10GI50 [5] | Log10LC50 [5] | Log10TGI50 [5] | Log10GI50 [6] | Log10LC50 [6] | Log10TGI50 [6] | Log10GI50 [7] | Log10LC50 [7] | further results
C[C@]1(C(=O)[C@H](Cc2ccccc2)NC(=O)[C@H](COC(F)F)NC(=O)[C@H](COC(F)F)NC(=O)CN2CCOCC2)CO1 [Example 26, (S)-N-{(S)-1-[(S)-1-Benzyl-2-((R)-2-methyl-oxiranyl)-2-oxo-ethylcarbamoyl]-2-difluoromethoxyethyl}-3-difluoromethoxy-2-(2-morpholin-4-yl-acetylamino)-propio-namide] | −7.41 | >−4.00 | −5.93 | −5.82 | >−4.00 | >−4.00 | −7.74 | −7.20 | −7.47 | −7.39 | −6.21 | −6.76 | −7.20 | −5.44 | −6.49 | −7.41 | >−4.00 | −6.13 | −7.10 | >−4.00 | Log10TGI50 [7]: −6.33; Log10GI50 [8]: −7.52; Log10LC50 [8]: >−4.00; Log10TGI50 [8]: −7.04; Log10GI50 [9]: −7.53; Log10LC50 [9]: >−4.00; Log10TGI50 [9]: −4.89; Log10GI50 [10]: −7.61; Log10LC50 [10]: −6.34; Log10TGI50 [10]: −7.03; Log10GI50 [11]: −7.75; Log10LC50 [11]: −7.10; Log10TGI50 [11]: −7.42; Log10GI50 [12]: −7.71; Log10LC50 [12]: >−4.00; Log10TGI50 [12]: >−4.00
C[C@]1(C(=O)[C@H](Cc2ccccc2)NC(=O)[C@H](Cc2ccccc2)NC(=O)[C@H](COC(F)F)NC(=O)CN2CCOCC2)CO1 [Example 29] | −7.40 | >−4.00 | −4.92 | −5.58 | >−4.00 | >−4.00 | −6.80 | −6.21 | −6.50 | −6.90 | −5.34 | −6.32 | −6.55 | −4.87 | −5.96 | −6.68 | >−4.00 | >−4.00 | −6.27 | −4.18 | Log10TGI50 [7]: −5.52; Log10GI50 [8]: −7.40; Log10LC50 [8]: >−4.00; Log10TGI50 [8]: −6.43; Log10GI50 [9]: −7.38; Log10LC50 [9]: >−4.00; Log10TGI50 [9]: >−4.00; Log10GI50 [10]: −6.68; Log10LC50 [10]: −5.47; Log10TGI50 [10]: −6.11; Log10GI50 [11]: −7.63; Log10TGI50 [11]: −7.17; Log10GI50 [12]: −7.69; Log10LC50 [12]: >−4.00; Log10TGI50 [12]: −4.36
Cc1ncc(C(=O)N[C@@H](COC(F)F)C(=O)N[C@@H](COC(F)F)C(=O)N[C@@H](Cc2ccccc2)C(=O)[C@@]2(C)CO2)s1 [Example 1, 2-methyl-thiazole-5-carboxylic acid ((S)-1-{(S)-1-[(S)-1-benzyl-2-((R)-2-methyloxiranyl)-2-oxo-ethylcarbamoyl]-2-difluoromethoxyethylcarbamoyl}-2-difluoromethoxyethyl)-amide] | −7.39 | −4.40 | −5.95 | −5.11 | >−4.00 | −4.23 | −6.74 | −6.15 | −6.45 | −6.22 | >−4.00 | −4.85 | −6.43 | >−4.00 | −4.62 | −6.41 | >−4.00 | >−4.00 | −5.54 | −4.23 | Log10TGI50 [7]: −4.74; Log10GI50 [8]: −7.40; Log10LC50 [8]: >−4.00; Log10TGI50 [8]: −4.86; Log10GI50 [9]: −7.35; Log10LC50 [9]: >−4.00; Log10TGI50 [9]: −4.62; Log10GI50 [10]: −8.00; Log10LC50 [10]: −4.88; Log10TGI50 [10]: −6.38; Log10GI50 [11]: −7.43; Log10LC50 [11]: >−4.00; Log10TGI50 [11]: −6.74; Log10GI50 [12]: −7.30; Log10LC50 [12]: >−4.00; Log10TGI50 [12]: >−4.00
